This series has as its system U251 cell line. Description: Cell titer glo viability, siRNA combined with temozolamide. Conditions: three days post treatment, combined with 1 mM temozolamide, p<0.0001 vs siRNA alone, P<0.01 vs temozolamide alone. Format: cell-based. From the text: siRNA s32836 targeting both the full ZMIZ1 transcript (uc001kaf.2) and the truncated ZMIZ1 transcript (uc001kag.2) was purchased from Life Technologies (Grand Island, N.Y., USA), and two custom designed Stealth siRNAs (referred to as 56 and 62) targeting specifically uc001kag.2 were designed (Life Technologies) for all in vitro assays. The sequence of stealth_56 is Sense: […] (SEQ ID NO:23), Anti-Sense: […] (SEQ ID NO:24), the sequence for stealth_62 is Sense: […] (SEQ ID NO:25), Anti-Sense: […] (SEQ ID NO:26). Appropriate scrambled siRNAs were used as controls. Hyper-expressing plasmids were designed for both the full and the truncated plasmids. Appropriate empty vector was used as control for all in vitro assays described. Cells were transfected using Lipofectamine 2000 and the respective siRNA or plasmid and were treated for 6 h. The media was changed after 6 h and the regular culture media was subsequently used.
U87 and U251 GBM cell lines were treated with varying doses of temozolamide (Sigma Aldrich, St Louis, Mo.). 1000 cells/well were seeded in a 96 well plate. […] Cells were followed for 3 days, and at the third day, viability was assessed with the cell titer glo assay.
Background: ATP-based viability assays read luminescence as a measure of living cells.

As to “56 siRNA: custom designed Stealth siRNA targeting specifically uc001kag.2; Sense SEQ ID NO:23, Anti-Sense SEQ ID NO:24 (sense CCGGUGCAACUUCUAGCCUUGUUGU; antisense ACAACAAGGCUAGAAGUUGCACCGG; Stealth siRNA, chemical modification pattern not given here)”, the “viability, combination compared to siRNA alone or temozolamide alone” value is “statistically significant decrease in viability”.

Source of the values: patent publication US10174384B2, “Use of the ZMIZ1 marker in directing treatment and predicting survival in cancer” (THE JOHNS HOPKINS UNIVERSITY, priority 2015, dated 2019).
